Laboratory results from PubChem BioAssay (NCI).
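GI50: concentration for 50% inhibition of growth. TGI is the concentration that stops growth completely.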

Experiments:
Assay in all cases: growth of human tumour cells (NCI), 384-well format
[1] = tested on: 786-0 renal
[2] = tested on: A498 renal
[3] = tested on: A549 NSCLC
[4] = tested on: ACHN renal
[5] = tested on: BT-549 breast
[6] = tested on: CAKI-1 renal
[7] = tested on: CCRF-CEM leukemia
[8] = tested on: COLO 205 colon
[9] = tested on: DU-145 prostate
[10] = tested on: HCC-2998 colon
[11] = tested on: HCT-116 colon
[12] = tested on: HCT-15 colon
[13] = tested on: HL-60(TB) leukemia
[14] = tested on: HOP-62 NSCLC
[15] = tested on: HOP-92 NSCLC
[16] = tested on: HT29 colon
[17] = tested on: IGROV1 ovarian
[18] = tested on: K-562 leukemia
[19] = tested on: KM12 colon
[20] = tested on: LOX IMVI melanoma
[21] = tested on: M14 melanoma
[22] = tested on: MALME-3M melanoma
[23] = tested on: MCF7 breast
[24] = tested on: MDA-MB-231 breast
[25] = tested on: MDA-MB-435 melanoma
[26] = tested on: MDA-MB-468 breast
[27] = tested on: MOLT-4 leukemia
[28] = tested on: NCI-H226 lung
[29] = tested on: NCI-H23 lung
[30] = tested on: NCI-H322M lung
[31] = tested on: NCI-H460 NSCLC
[32] = tested on: NCI-H522 lung
[33] = tested on: NCI/ADR-RES ovarian
[34] = tested on: OVCAR-3 ovarian
[35] = tested on: OVCAR-4 ovarian
[36] = tested on: OVCAR-5 ovarian
[37] = tested on: OVCAR-8 ovarian
[38] = tested on: PC-3 prostate
[39] = tested on: RPMI-8226 leukemia
[40] = tested on: RXF 393 renal
[41] = tested on: SF-268 CNS
[42] = tested on: SF-295 CNS
[43] = tested on: SF-539 CNS
[44] = tested on: SK-MEL-2 melanoma
[45] = tested on: SK-MEL-28 melanoma
[46] = tested on: SK-MEL-5 melanoma
[47] = tested on: SK-OV-3 ovarian
[48] = tested on: SN12C renal
[49] = tested on: SNB-19 CNS
[50] = tested on: SR leukemia
[51] = tested on: SW-620 colon
[52] = tested on: T-47D breast
[53] = tested on: TK-10 renal
[54] = tested on: U251 glioblastoma
[55] = tested on: UACC-257 melanoma
[56] = tested on: UACC-62 melanoma
[57] = tested on: UO-31 renal
[58] = tested on: EKVX NSCLC
[59] = tested on: HS 578T breast
[60] = tested on: SNB-75 CNS

In the case of `COc1cccc2c1C(=O)c1c(O)c3c(c(O)c1C2=O)C[C@@](O)(/C(CO)=N/NC(=O)CCCCCN1C(=O)C=CC1=O)C[C@@H]3O[C@H]1C[C@H](N)[C@H](O)[C@H](C)O1`, the GI50 [1] is reported as 110 nM, the TGI [1] is reported as 368 nM and the GI50 [2] is reported as 95.8 nM. It also gave a TGI [2] of 1440 nM, a GI50 [3] of 98 nM and a TGI [3] of 1430 nM. For the same compound, the GI50 [4] was 258 nM, the TGI [4] was 1360 nM and the GI50 [5] was 59.9 nM. For the same compound, the TGI [5] was 271 nM, the GI50 [6] was 155 nM and the TGI [6] was 1060 nM. For the same compound, the GI50 [7] was 15.3 nM, the TGI [7] was 34 nM and the GI50 [8] was 36.6 nM. For the same compound, the TGI [8] was 183 nM, the GI50 [9] was 152 nM and the TGI [9] was 365 nM. For the same compound, the GI50 [10] was 123 nM, the TGI [10] was 294 nM and the GI50 [11] was 74.9 nM. The TGI [11] was 626 nM, the GI50 [12] was 470 nM and the TGI [12] was 3110 nM. For the same compound, the GI50 [13] was 15.1 nM, the TGI [13] was 29.4 nM and the GI50 [14] was 103 nM. For the same compound, the TGI [14] was 273 nM, the GI50 [15] was 37 nM and the TGI [15] was 247 nM. For the same compound, the GI50 [16] was 148 nM, the TGI [16] was 780 nM and the GI50 [17] was 346 nM. The TGI [17] was 2480 nM, the GI50 [18] was 114 nM and the TGI [18] was 1060 nM. The GI50 [19] was 116 nM, the TGI [19] was 295 nM and the GI50 [20] was 166 nM. For the same compound, the TGI [20] was 381 nM, the GI50 [21] was 72.6 nM and the TGI [21] was 258 nM. It also gave a GI50 [22] of 152 nM, a TGI [22] of 403 nM and a GI50 [23] of 93.6 nM. It also gave a TGI [23] of 377 nM, a GI50 [24] of 62.5 nM and a TGI [24] of 206 nM. The GI50 [25] was 268 nM, the TGI [25] was 1480 nM and the GI50 [26] was 44.8 nM. It also gave a TGI [26] of 169 nM, a GI50 [27] of 10.9 nM and a TGI [27] of 23 nM. For the same compound, the GI50 [28] was 122 nM, the TGI [28] was 288 nM and the GI50 [29] was 166 nM. It also gave a TGI [29] of 381 nM, a GI50 [30] of 917 nM and a TGI [30] of 2680 nM. It also gave a GI50 [31] of 25.2 nM, a TGI [31] of 136 nM and a GI50 [32] of 29.4 nM. It also gave a TGI [32] of 148 nM, a GI50 [33] of 12300 nM and a TGI [33] of 44900 nM. It also gave a GI50 [34] of 159 nM, a TGI [34] of 686 nM and a GI50 [35] of 243 nM. The TGI [35] was 716 nM, the GI50 [36] was 522 nM and the TGI [36] was 3000 nM. For the same compound, the GI50 [37] was 141 nM, the TGI [37] was 1310 nM and the GI50 [38] was 407 nM. It also gave a TGI [38] of 1940 nM, a TGI [39] of 173 nM and a GI50 [40] of 45.2 nM. For the same compound, the TGI [40] was 228 nM, the GI50 [41] was 71.4 nM and the TGI [41] was 372 nM. For the same compound, the GI50 [42] was 154 nM, the TGI [42] was 470 nM and the GI50 [43] was 38.7 nM. The TGI [43] was 140 nM, the GI50 [44] was 101 nM and the TGI [44] was 229 nM. It also gave a GI50 [45] of 126 nM, a TGI [45] of 519 nM and a GI50 [46] of 124 nM. The TGI [46] was 328 nM, the GI50 [47] was 138 nM and the TGI [47] was 339 nM. For the same compound, the GI50 [48] was 139 nM, the TGI [48] was 391 nM and the GI50 [49] was 127 nM. For the same compound, the TGI [49] was 553 nM, the TGI [50] was 15.7 nM and the GI50 [51] was 59.3 nM. For the same compound, the TGI [51] was 829 nM, the GI50 [52] was 61.5 nM and the TGI [52] was 280 nM. For the same compound, the GI50 [53] was 225 nM, the TGI [53] was 1040 nM and the GI50 [54] was 50.4 nM. The TGI [54] was 188 nM, the GI50 [55] was 180 nM and the TGI [55] was 552 nM. For the same compound, the GI50 [56] was 75.9 nM, the TGI [56] was 233 nM and the GI50 [57] was 1260 nM. The TGI [57] was 3130 nM.
For `CCOc1cc(-c2nncn2C)ccc1Nc1ncc2cc(C)nc(NCC(C)(C)C)c2n1`, the GI50 [1] was 468 nM, the TGI [1] was over 100000 nM and the GI50 [2] was 548 nM. It also gave a TGI [2] of over 100000 nM, a GI50 [3] of 99.2 nM and a TGI [3] of over 100000 nM. The GI50 [4] was 1770 nM, the TGI [4] was over 100000 nM and the GI50 [5] was 850 nM. For the same compound, the TGI [5] was over 100000 nM, the GI50 [6] was over 100000 nM and the TGI [6] was over 100000 nM. The GI50 [7] was 77.2 nM, the TGI [7] was 278 nM and the GI50 [8] was 196 nM. For the same compound, the TGI [8] was over 100000 nM, the GI50 [9] was 365 nM and the TGI [9] was over 100000 nM. For the same compound, the GI50 [58] was 2050 nM, the TGI [58] was over 100000 nM and the GI50 [10] was over 100000 nM. It also gave a TGI [10] of over 100000 nM, a GI50 [11] of 62 nM and a TGI [11] of over 100000 nM. For the same compound, the GI50 [12] was 73.8 nM, the TGI [12] was over 100000 nM and the GI50 [13] was 266 nM. It also gave a TGI [13] of 587 nM, a GI50 [14] of 230 nM and a TGI [14] of over 100000 nM. The GI50 [15] was over 100000 nM, the TGI [15] was over 100000 nM and the GI50 [59] was 188 nM. For the same compound, the TGI [59] was over 100000 nM, the GI50 [16] was over 100000 nM and the TGI [16] was over 100000 nM. It also gave a GI50 [17] of over 100000 nM, a TGI [17] of over 100000 nM and a GI50 [18] of 918 nM. For the same compound, the TGI [18] was over 100000 nM, the GI50 [19] was 96.7 nM and the TGI [19] was over 100000 nM. For the same compound, the GI50 [20] was 179 nM, the TGI [20] was over 100000 nM and the GI50 [22] was 37100 nM. It also gave a TGI [22] of over 100000 nM, a TGI [23] of over 100000 nM and a GI50 [24] of 47800 nM. For the same compound, the TGI [24] was over 100000 nM, the GI50 [25] was over 100000 nM and the TGI [25] was over 100000 nM. It also gave a GI50 [26] of 578 nM, a TGI [26] of 7020 nM and a GI50 [27] of 22.3 nM. For the same compound, the TGI [27] was 46.3 nM, the GI50 [28] was 15900 nM and the TGI [28] was over 100000 nM. The GI50 [30] was over 100000 nM, the TGI [30] was over 100000 nM and the GI50 [31] was 169 nM. For the same compound, the TGI [31] was over 100000 nM, the GI50 [32] was 669 nM and the TGI [32] was over 100000 nM. For the same compound, the GI50 [33] was 618 nM, the TGI [33] was over 100000 nM and the GI50 [34] was 969 nM. It also gave a TGI [34] of over 100000 nM, a GI50 [35] of over 100000 nM and a TGI [35] of over 100000 nM. For the same compound, the GI50 [36] was 1330 nM, the TGI [36] was over 100000 nM and the GI50 [37] was 377 nM. It also gave a TGI [37] of over 100000 nM, a GI50 [38] of 18000 nM and a TGI [38] of over 100000 nM. It also gave a GI50 [39] of 300 nM, a TGI [39] of 3770 nM and a GI50 [40] of 1340 nM. It also gave a TGI [40] of 99100 nM, a GI50 [41] of 10500 nM and a TGI [41] of over 100000 nM. It also gave a GI50 [42] of over 100000 nM, a TGI [42] of over 100000 nM and a GI50 [43] of 351 nM. It also gave a TGI [43] of over 100000 nM, a GI50 [44] of over 100000 nM and a TGI [44] of over 100000 nM. It also gave a GI50 [45] of over 100000 nM, a TGI [45] of over 100000 nM and a GI50 [46] of 461 nM. It also gave a TGI [46] of over 100000 nM, a GI50 [47] of over 100000 nM and a TGI [47] of over 100000 nM. It also gave a GI50 [48] of over 100000 nM, a TGI [48] of over 100000 nM and a GI50 [49] of 86700 nM. For the same compound, the TGI [49] was over 100000 nM, the GI50 [60] was over 100000 nM and the TGI [60] was over 100000 nM. For the same compound, the GI50 [50] was 139 nM, the TGI [50] was 333 nM and the GI50 [51] was 304 nM. For the same compound, the TGI [51] was over 100000 nM, the GI50 [52] was 7930 nM and the TGI [52] was over 100000 nM. It also gave a GI50 [53] of 3890 nM, a TGI [53] of over 100000 nM and a GI50 [54] of 460 nM. For the same compound, the TGI [54] was over 100000 nM, the GI50 [55] was over 100000 nM and the TGI [55] was over 100000 nM. For the same compound, the GI50 [56] was over 100000 nM, the TGI [56] was over 100000 nM and the GI50 [57] was 514 nM. It also gave a TGI [57] of over 100000 nM.
